According to paper PMC8157569 (Pharmaceuticals, 2021):
pIC50: −log10 of the molar value. Structures can show the parent of a compound that is named as a salt.

Target: T1, α1A-adrenoceptor (Homo sapiens, UniProt P35348)
T1 construct: gene ADRA1A
T1 sequence (P35348 1-466): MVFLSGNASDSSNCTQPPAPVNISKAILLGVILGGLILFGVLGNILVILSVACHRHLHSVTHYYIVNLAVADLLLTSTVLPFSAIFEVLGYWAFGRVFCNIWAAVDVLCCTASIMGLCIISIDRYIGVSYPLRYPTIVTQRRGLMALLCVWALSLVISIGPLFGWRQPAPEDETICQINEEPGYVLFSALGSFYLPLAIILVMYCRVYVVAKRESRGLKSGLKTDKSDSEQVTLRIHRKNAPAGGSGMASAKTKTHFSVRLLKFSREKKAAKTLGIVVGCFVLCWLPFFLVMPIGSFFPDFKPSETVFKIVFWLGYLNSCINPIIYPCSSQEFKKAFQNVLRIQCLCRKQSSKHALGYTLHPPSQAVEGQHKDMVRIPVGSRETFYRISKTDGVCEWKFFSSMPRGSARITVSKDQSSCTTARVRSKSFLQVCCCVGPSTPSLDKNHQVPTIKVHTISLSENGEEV
Assay: aequorin luminescence calcium assay, antagonist mode against phenylephrine, cells stably expressing human α1A-adrenoceptor
Format: cell-based

pIC50: 8.85
SMILES: COc1ccccc1N1CCN(CCCOc2c(C)cccc2C)CC1 [MH-76, 1-[3-(2,6-dimethylphenoxy)propyl]-4-(2-methoxyphenyl)piperazine hydrochloride]
